In US11773127B2, “Compounds and methods for treating bacterial infections” (Washington University, priority 2017, dated 2023):
≈ marks a conversion by molar mass, not a printed value. Read-outs that look alike come from different tables or passages of the source.

Legend:
[1] = Stability in simulated intestinal fluid (SIF); type: in vitro ADME
Protocol: (§1) These compounds were assessed for their stability in simulated gastric fluid (SGF), simulated intestinal fluid (SIF), mouse liver microsomes, and blood plasma (Table 7). […] These findings are consistent with our earlier characterization of FimH antagonists (mannosides).

Kinetic solubility = type: physicochemical
[2] = Mouse liver microsome stability; type: in vitro ADME
Protocol: as §1

[3] = Stability in simulated gastric fluid (SGF); type: in vitro ADME
Protocol: as §1

Mouse plasma stability = type: in vitro ADME
Protocol: as §1

FmlHLD = target: T1, FmlHLD (Escherichia coli, UniProt P77588); assay: biochemical; type: binding, E. coli; conditions: for inhibitory potency against FmlH, in words: ELISA-based competition assay
T1 construct: 6xHis (C); made in house; host or cells: E. coli C600, periplasm, pTRC99a
T1 sequence (P77588 25-182): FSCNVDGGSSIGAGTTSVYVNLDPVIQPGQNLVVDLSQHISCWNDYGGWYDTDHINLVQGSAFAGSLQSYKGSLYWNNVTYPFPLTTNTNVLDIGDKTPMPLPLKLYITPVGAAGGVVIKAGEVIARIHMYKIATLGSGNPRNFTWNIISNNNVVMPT
In short: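 Sialidase-treated bovine submaxillary mucin (ds-BSM) coated wells, BSA-blocked, then biotinylated FmlH^LD (20 μg/mL) with or without compound for 1 h at room temperature. Bound lectin detected by streptavidin-HRP/TMB, A450.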

[4] = Mouse pharmacokinetics, IP injection; conditions: 20 mg/kg IP
Protocol: These studies were conducted via 20 mg/kg intraperitoneal (IP) injection to inform planned future IP studies in murine studies of chronic UTI, which require a single IP dose of galactoside to persist in the plasma for 6 hours prior to measurement of bladder bacterial burdens (FIG. 17)^22.

[5] = Rat pharmacokinetics, plasma and urine, IV and PO; type: in vivo; conditions: for bioavailability: in vivo, 10 mg/kg PO vs 3 mg/kg IV, read-out: oral bioavailability (F); for bioavailability / renal clearance to the urine: rat
Protocol: In this example, the concentration of compounds 3086 and 3090 in rat plasma and urine following either a 10 mg/kg oral dose (PO; circular dots) or a 3 mg/kg intravenous dose (IV; square dots) was determined (FIG. 16, panel A (3086) and panel B (3090)). […] Thus, the metabolic stability of these compounds and clearance of these compounds has no relation to the permeability (oral or otherwise) of compounds. The highly polar nature of these molecules containing the sugar GalNAc and multiple polar functionalities precludes their permeability in the gut.

[6] = IC50 (μM), Table 6, sulfonamides 3078-3090
[7] = rat plasma, 10 mg/kg PO or 3 mg/kg IV

SMILES	SIF % remaining 2 h [1] [%]	solubility kinetic (Kinetic solubility; kinetic from dmso stock) [µM]	Mouse liver microsomes (t1/12 min) [2] [min]	SGF % remaining 6 h [3] [%]	Mouse plasma % remaining 2 h (Mouse plasma stability) [%]	IC50 (FmlHLD; [6]) [µM]	solubility kinetic (Kinetic solubility) [µM]	Cmax [4] [ng/mL]	calculated AUC [4] [ng·h/mL]	compound exposure at 8 h [4]	half-life, t1/2 [4] [h]	IC50 (FmlHLD; IC50) [µM]	IC50 (FmlHLD; IC50 equated to a concentration, conversion of IC50 of 120 nM) [µM]	bioavailability [5] [%]	renal clearance to the urine [5]	clearance (Cl) [5, 7] [mL/min/kg]	t1/2 [5, 7] [h]	inhibitory potency against FmlH, in words (FmlHLD)	half-life [5, 7] [h]	clearance ([5]; rat plasma, 10 mg/kg PO or 3 mg/kg IV, read-out: clearance (Cl)) [mL/min/kg]
CC(=O)N[C@@H]1[C@H](Oc2cccc(C#N)c2-c2cccc(NS(C)(=O)=O)c2)OC(CO)[C@H](O)[C@@H]1O (stereo partly drawn) [Compound 3079, N-((2S,3S,4R,5R)-2-((6-cyano-3′-(methylsulfonamido)-[1,1′-biphenyl]-2-yl)oxy)-4,5-dihydroxy-6-(hydroxymethyl)tetrahydro-2H-pyran-3-yl)acetamide]	100.00	196 (≈ 96.3 µg/mL)	>145	86.77	89.1	0.11	–	–	–	–	–	–	–	–	–	–	–	–	–	–
CC(=O)N[C@H]1[C@H](Oc2cccc(F)c2-c2cccc(NS(C)(=O)=O)c2)O[C@H](CO)[C@H](O)[C@@H]1O [Compound 3080, N-((2S,3R,4R,5R,6R)-2-((6-fluoro-3′-(methylsulfonamido)-[1,1′-biphenyl]-2-yl)oxy)-4,5-dihydroxy-6-(hydroxymethyl)tetrahydro-2H-pyran-3-yl)acetamide]	93.79	–	>145	91.95	89.1	0.15	197 (≈ 95.4 µg/mL)	–	–	–	–	–	–	–	–	–	–	–	–	–
CC(=O)N[C@H]1[C@H](Oc2cccc(C)c2-c2cccc(NS(C)(=O)=O)c2)O[C@H](CO)[C@H](O)[C@@H]1O [Compound 3084, N-((2S,3R,4R,5R,6R)-4,5-dihydroxy-6-(hydroxymethyl)-2-((6-methyl-3′-(methylsulfonamido)-[1,1′-biphenyl]-2-yl)oxy)tetrahydro-2H-pyran-3-yl)acetamide]	100.00	–	>145	100.00	100.00	–	195 (≈ 93.7 µg/mL)	7897	6300	moderate compound exposure	1.13	0.12	0.12	–	–	–	–	–	–	–
CC(=O)N[C@H]1[C@H](Oc2cccc(C)c2-c2cccc(NS(=O)(=O)C3CC3)c2)O[C@H](CO)[C@H](O)[C@@H]1O [Compound 3086, N-((2S,3R,4R,5R,6R)-2-((3′-(cyclopropanesulfonamido)-6-methyl-[1,1′-biphenyl]-2-yl)oxy)-4,5-dihydroxy-6-(hydroxymethyl)tetrahydro-2H-pyran-3-yl)acetamide]	100.00	–	>145	100.00	84.1	0.12	196 (≈ 99.3 µg/mL)	–	–	–	–	–	–	< 1	low renal clearance to the urine	43.8	1.46	retain the same activity as the methyl sulfonamides	–	–
Cc1cccc(O[C@@H]2OC(CO)[C@H](O)[C@H](O)[C@@H]2NC(=O)C(F)(F)F)c1-c1cccc(NS(C)(=O)=O)c1 (stereo partly drawn) [Compound 3088, N-((2S,3S,4R,5R)-4,5-dihydroxy-6-(hydroxymethyl)-2-((6-methyl-3′-(methylsulfonamido)-[1,1′-biphenyl]-2-yl)oxy)tetrahydro-2H-pyran-3-yl)-2,2,2-trifluoroacetimidic acid]	89.15	164 (≈ 87.7 µg/mL)	>145	90.95	88.9	0.11	–	–	–	–	–	–	–	–	–	–	–	–	–	–
CC(=O)N[C@@H]1[C@H](Oc2cccc(C(F)(F)F)c2-c2cccc(NS(C)(=O)=O)c2)OC(CO)[C@H](O)[C@@H]1O (stereo partly drawn) [Compound 3090, N-((2S,3S,4R,5R)-4,5-dihydroxy-6-(hydroxymethyl)-2-((3′-(methylsulfonamido)-6-(trifluoromethyl)-[1,1′-biphenyl]-2-yl)oxy)tetrahydro-2H-pyran-3-yl)acetamide]	91.9	197 (≈ 105 µg/mL)	>145	89.25	92.2	–	–	–	–	–	–	0.085	–	< 1	low renal clearance to the urine	–	–	highest potency of the compounds tested	1.16	57
